Experiments:
[1] = Test for expectorant activity (phenol red in trachea); assay type: in vivo, mice
Experimental: Using the method of Engler et al. ([…]. Pharmacol. […] Jian-Hua Shang et al, J. Ethnopharmacology, 129, 293-298, 2010), the expectorant activity of the extract of the present invention was measured. […] Orientbio, Korea) were divided into groups, each consisting of 10 mice. […] After 30 minutes, the mice were subjected to cervical dislocation, and blood was discharged from the abdominal aorta, after which the trachea was completely excised. The isolated trachea was cold-stored in 1 ml of physiological saline.

[2] = test system: extracted bronchi of guinea pigs; assay: Test for bronchoconstriction (in vitro), ovalbumin-induced constriction of isolated sensitized bronchi; conditions: Cavia porcellus, read-out: Bronchoconstriction inhibition rate(%)
Experimental: The comparative drug rolipram was used at a concentration of 20 μM, and each of the extracts was used at a concentration of 0.3 mg/ml.
Specifically, Hartely male guinea pigs (400-500 g, BGI, Korea) were sensitized by intravenous injection with 2 ml/kg of anti-ovalbumin anti-serum. At 48 hours after sensitization, the guinea pigs were sacrificed and the bronchi were extracted therefrom. Then, other tissues attached to the bronchi were removed using a tyrode solution, and each of the bronchi was cut in a ring shape containing 2-3 cartilages. Then, the cartilage portion of the ring was excised while the bronchial muscle was preserved. Then, a string was connected to both sides of each bronchus which was then suspended in an organ bath and stabilized for a predetermined time. Then, 10 μg/ml of carbachol was added to induce the maximum constriction of the bronchi which were then washed with a tyrode solution and stabilized. Next, 5 μM of indomethacin was added to each bronchus, and after 1 minute, each of the extracts was added to each bronchi, and after 5 minutes, 20 μg/ml of ovalbumin was added to induce bronchoconstriction. […] The relaxation of the bronchi was measured using a physiological activity meter connected (powerlab 8/30, AD Instrument) with a force transducer (WPI).

[3] = test system: leukocytes in the bronchoalveolar lavage; assay: Test for inhibition of bronchial inflammation, leukocytes in bronchoalveolar lavage of ovalbumin-sensitized mice; assay type: in vivo; conditions: oral 10 mg/kg b.i.d.
Experimental: Specifically, BALB/c female mice (6.5 weeks old, SLC, Japan) were sensitized by intraperitoneal administration of 0.2 ml of a 1:1 mixture of 10 μg of ovalbumin (OVA, Sigma) and 4 mg of aluminum hydroxide (Alum, Pierce) at days 0, 7 and 14. At 8 days and 10 days after the final sensitization, aerosol prepared from 1.0% ovalbumin using high-pressure compressed air was sprayed into the mice for 50 minutes to induce airway inflammation. As a comparative drug, 10 mg/kg of rolipram (Sigma) was used. The comparative drug and the test materials were orally administered twice (morning and evening) a day during a period ranging from 21 days to 23 days after the first sensitization. At 24 hours after the final induction of inflammation, the bronchoalveoli were laved with 1.5 ml of phosphate buffered saline (pH 7.2) to collect a bronchoalveolar lavage. The number of leukocytes in the lavage was counted using a hematology analyzer (Drew Scientific Inc., HEMAVET HV950FS, M-950HV).

5-lipoxygenase = molecular target: T1, 5-lipoxygenase (Rattus norvegicus, UniProt P12527); assay: 5-Lipoxygenase inhibitory activity (leukotriene production in RBL-1 cells, cysteinyl leukotriene EIA); assay type: cell-based; conditions: RBL-1, read-out: 5-lipoxygenase inhibition rate(%)
T1 construct: rat basophilic leukemia cells (RBL-1) were stabilized using serum-free RPMI medium; endogenous in cells; host or cells: RBL-1 (rat basophilic leukemia cells)
T1 sequence (P12527 whole entry): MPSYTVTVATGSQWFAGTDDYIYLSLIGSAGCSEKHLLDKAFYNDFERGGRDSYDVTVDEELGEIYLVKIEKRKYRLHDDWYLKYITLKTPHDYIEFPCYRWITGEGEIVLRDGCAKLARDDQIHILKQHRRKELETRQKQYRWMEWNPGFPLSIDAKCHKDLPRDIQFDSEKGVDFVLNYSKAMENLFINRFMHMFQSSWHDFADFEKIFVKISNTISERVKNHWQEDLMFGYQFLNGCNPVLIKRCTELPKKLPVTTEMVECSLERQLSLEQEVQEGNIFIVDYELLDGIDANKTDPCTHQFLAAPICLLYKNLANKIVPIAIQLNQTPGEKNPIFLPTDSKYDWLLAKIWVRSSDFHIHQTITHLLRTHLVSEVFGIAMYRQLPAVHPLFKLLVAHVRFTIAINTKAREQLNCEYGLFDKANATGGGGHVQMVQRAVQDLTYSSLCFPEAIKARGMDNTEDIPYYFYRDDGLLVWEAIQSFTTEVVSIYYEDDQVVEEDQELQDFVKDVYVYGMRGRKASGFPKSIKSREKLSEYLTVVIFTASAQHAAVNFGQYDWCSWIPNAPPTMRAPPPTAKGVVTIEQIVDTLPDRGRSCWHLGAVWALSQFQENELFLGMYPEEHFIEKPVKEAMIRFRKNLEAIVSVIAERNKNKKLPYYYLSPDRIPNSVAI
Experimental: Specifically, rat basophilic leukemia cells (RBL-1) were stabilized using serum-free RPMI medium at 37° C., and each of the extracts and arachidonic acid as a substrate were added thereto and incubated for 15 minutes to produce leukotriene. The amount of the produced leukotriene was measured using a cysteinyl leukotriene EIA kit. As comparative drugs, the 5-lipoxygenase inhibitors zileuton and montelukast were used.

[4] = test system: citric acid-induced coughing; assay: Test for antitussive activity (citric acid-induced coughing); assay type: in vivo, guinea pigs; conditions: Oral dose 50 mg/kg
Experimental: In order to evaluate the antitussive activity of the extract of the present invention (American Journal of Respiratory and Critical Care Medicine, 1998, 158 [1], 42-48), the extract of Example 2 was administered into guinea pigs, and then citric acid was sprayed into the guinea pig to induce coughing, after which the number of coughs was measured. Citric acid is frequently used in studies on the activity of airway sensory nerves, and the inhalation of citric acid causes bronchoconstriction, nasal stimulation, coughing, bronchial hypersensitivity and the like.
Specifically, as experimental animals, Hartely male guinea pigs (weighed 350-400 g; Orientbio, Korea) were divided into groups, each consisting of 10-12 animals. Each of the extract of Example 2 and 50 mg/kg of the comparative drug theobromine (Sigma) was administered orally into the grouped mice which have been fasted for one day. After 1 hour, 0.3M citric acid as a cough inducer was sprayed into the animals to induce coughing.

[5] = test system: croton oil-induced ear edema; assay: Croton oil-induced ear edema; assay type: in vivo, mice; conditions: oral dose 100 mg/kg
Experimental: When croton oil is applied to the skin, an inflammatory reaction occurs to produce redness, a swelling and a blister on the applied surface (Archives of Pharmacal Research, 1993, 16[1], 18-24).
As experimental animals, male ICR mice (weighed 20-23 g; Orientbio, Korea) were divided into groups, each consisting of 10 mice. Each of the test samples and the comparative drug COX-2 inhibitor Celecoxib (100 mg/kg, Pfizer) was orally administered into the mice which have been fasted for one day, and after 1 hour, a solution of 3% croton oil in acetone was applied uniformly to the inner and outer sides of the right ear of each mouse to induce ear edema.

For `Nc1c(Br)cc(Br)cc1CN[C@H]1CC[C@H](O)CC1` [Ambroxol, ambroxol], the “Expectorant activity (%)” value ([1]; Oral dose 250 mg/kg) was 27%.

With `[Cl-].[Cl-].[Mg+2]` [Magnesium chloride] the “Expectorant activity (%)” value ([1]; Oral dose 500 mg/kg) was 33%.

For `COc1ccc(C2CNC(=O)C2)cc1OC1CCCC1` (stereo not shown) [rolipram], the inhibition at 20 µM [2] was 62% and the “Inhibition rate (%) of pulmonary bronchial inflammation” value [3] was 22%.

`CC(c1cc2ccccc2s1)N(O)C(N)=O` (stereo not shown) [Zileuton, zileuton] gave an inhibition at 1 µM (5-lipoxygenase) of 63%.

With `Cn1cnc2c1c(=O)[nH]c(=O)n2C` [theobromine] the “Cough inhibition rate (%)” value [4] was 36%.

In the case of `Cc1ccc(-c2cc(C(F)(F)F)nn2-c2ccc(S(N)(=O)=O)cc2)cc1` [Celecoxib], the “Ear edema inhibition rate (%)” value [5] is reported as 17%.

Source: US20140030368A1, “COMPOSITION FOR PREVENTING OR TREATING A RESPIRATORY DISEASE CONTAINING A MIXED HERBAL EXTRACT OF CNIDIUM OFFICINALE ROOT AND POLYGONI CUSPIDATI ROOT” (WHANIN PHARMACEUTICAL CO., LTD., priority 2011, published 2014)
